Data from patent US20040146554A1, “Method for the administration of acid-labile drugs” (priority 2000, published 2004).

Assays:
[1] = Suspending PPI capsule granules or tablets in calcium carbonate suspension; type: physicochemical; details: granular contents of capsule (20 mg omeprazole, 30 mg lansoprazole) in 10 cc of 4 gm % or 8 gm % calcium carbonate suspension
Protocol: More specifically, suspensions of calcium carbonate were produced by dissolving either 400 mg or 800 mg of calcium carbonate in 10 cc of water, resulting in suspensions of 4 gm % and 8 gm %, respectively. In separate 10 cc preparations of either strength of the calcium carbonate suspension, the granular contents of a 20 mg omeprazole capsule, a 30 mg lansoprazole capsule, a 20 mg rabeprazole tablet, and a 40 mg pantoprazole tablet were suspended. In approximately 30 minutes, the granules of the omeprazole and lansoprazole capsules were in complete suspension. In approximately two hours, the contents of the tablets of rabeprazole and pantoprazole had completely suspended.

[2] = test system: gastric acid secretion; details: intact granules suspended in orange juice, via gastrostomy tube; cited from earlier work

- time until granules were in complete suspension [1]: approximately 30 minutes
SMILES: Cc1c(OCC(F)(F)F)ccnc1C[S+]([O-])c1nc2ccccc2[nH]1 (centres unmarked) [lansoprazole]
- suppression of gastric acid secretion [2]: produced the desired effect of suppressing gastric acid secretion
